Data reported in US6326361A, “Gangliosides with immunosuppressive activity” (The Regents of the University of California, priority 1993, dated 2001).
pIC50: −log10 of the molar value.

Assays:
[1] = test system: normal human peripheral blood mononuclear cells (PBMC); experiment: Inhibition of normal human lymphoproliferative responses to a panel of mitogens and soluble antigens (3H-thymidine uptake); format: cell-based; settings: 0.5% plasma; for 3H-thymidine uptake: mean of triplicate cultures
[2] = test system: normal human peripheral blood mononuclear cells (PBMC); format: cell-based; settings: for IC90: tetanus toxoid, 2-3 separate experiments/ganglioside, read-out: ID90 (ganglioside concentration required to cause 90% inhibition of the lymphoproliferative response)
[3] = Candida Antigen, ganglioside 2.5 μM
[4] = Candida Antigen, ganglioside 10 μM
[5] = Diptheria Toxoid, ganglioside 2.5 μM
[6] = Diptheria Toxoid, ganglioside 10 μM
[7] = Tetanus Toxoid, ganglioside 10 μM

With GD1a the “% inhibition” value [1, 3] was 45%, the 3H-thymidine uptake [1, 3] was 3.2 net cpm and the “% inhibition” value [1, 4] was 84%. The 3H-thymidine uptake [1, 4] was 0.9 net cpm, the “% inhibition” value ([1]; ConA, ganglioside 2.5 μM) was 0% and the 3H-thymidine uptake ([1]; ConA, ganglioside 2.5 μM) was 84.3 net cpm. For the same substance, the “% inhibition” value ([1]; ConA, ganglioside 10 μM) was 37%, the 3H-thymidine uptake ([1]; ConA, ganglioside 10 μM) was 49.0 net cpm and the “% inhibition” value [1, 5] was 60%. The 3H-thymidine uptake [1, 5] was 2.1 net cpm, the “% inhibition” value [1, 6] was 85% and the 3H-thymidine uptake [1, 6] was 0.8 net cpm. The “% inhibition” value ([1]; PHA, ganglioside 2.5 μM) was 3%, the 3H-thymidine uptake ([1]; PHA, ganglioside 2.5 μM) was 75.4 net cpm and the “% inhibition” value ([1]; PHA, ganglioside 10 μM) was 11%. For the same substance, the 3H-thymidine uptake ([1]; PHA, ganglioside 10 μM) was 69.2 net cpm, the “% inhibition” value ([1]; PWM, ganglioside 2.5 μM) was 7% and the 3H-thymidine uptake ([1]; PWM, ganglioside 2.5 μM) was 13.0 net cpm. For the same substance, the “% inhibition” value ([1]; PWM, ganglioside 10 μM) was 68%, the 3H-thymidine uptake ([1]; PWM, ganglioside 10 μM) was 4.5 net cpm and the 3H-thymidine uptake ([1]; Tetanus Toxoid, ganglioside 2.5 μM) was 8.8 net cpm. The “% inhibition” value [1, 7] was 88%, the 3H-thymidine uptake [1, 7] was 3.2 net cpm and the IC90 [2] was 2.3 µM.

GD1b showed an IC90 [2] of 4.5 µM.

GT1b showed an IC90 [2] of 2.8 µM.

With asialo-GM1 [reference compound] the “immunosuppressive activity (in words)” value [2] was “does not substantially alter activity”.

“galactosylceramide [asialo-GM4, reference compound]” gave a pIC50 ([2]; tetanus toxoid-induced lymphoproliferation, read-out: ID50 (the source's name)) of 4.89.

For sialosylceramide [GM5], the “predicted immunosuppressive activity (in words)” value ([2]; inferred from Table 2 trend) was “very active as an immunosuppressant”.
